The NIST ThermoML archive (doi:10.1021/je901071x)

Experiments:
[1] = 101 kPa, Liquid; for viscosity: Capillary tube (Ostwald / Ubbelohde) method; for mass density: Vibrating tube method
[2] = xn = mol fraction of the nth substance listed; settings: 101 kPa, Liquid; for viscosity: Capillary tube (Ostwald / Ubbelohde) method; for mass density: Vibrating tube method

CC(C)Cc1ccccc1 [(2-methylpropyl)benzene]
[1]
Settings | mass density [kg/m3] | viscosity [mPa·s]
303.15 K | 844.4 | 0.905
308.15 K | 841.1 | 0.848
313.15 K | 837.6 | 0.784

CC(C)Cc1ccccc1 [(2-methylpropyl)benzene] + CCCOC=O
[2]
Settings | mass density, 303.15 K [kg/m3] | mass density, 308.15 K [kg/m3] | mass density, 313.15 K [kg/m3] | viscosity, 303.15 K [mPa·s] | viscosity, 308.15 K [mPa·s] | viscosity, 313.15 K [mPa·s]
x2 = 0 | 844.4 | 841.1 | 837.6 | 0.905 | 0.848 | 0.784
x2 = 0.1508 | 848.8 | 845.2 | 841.4 | 0.813 | 0.771 | 0.718
x2 = 0.287 | 853.3 | 849.5 | 845.6 | 0.743 | 0.706 | 0.661
x2 = 0.4072 | 857.9 | 854 | 850 | 0.687 | 0.654 | 0.614
x2 = 0.519 | 862.9 | 858.7 | 854.5 | 0.64 | 0.61 | 0.575
x2 = 0.6161 | 867.7 | 863.4 | 859.1 | 0.602 | 0.575 | 0.543
x2 = 0.708 | 872.9 | 868.5 | 864 | 0.569 | 0.544 | 0.515
x2 = 0.7895 | 878 | 873.4 | 868.8 | 0.54 | 0.519 | 0.492
x2 = 0.8656 | 883.2 | 878.4 | 873.7 | 0.516 | 0.497 | 0.471
x2 = 0.9341 | 888.3 | 883.4 | 878.6 | 0.495 | 0.476 | 0.451

c1ccccc1 [benzene]
[1]
Settings | mass density [kg/m3] | viscosity [mPa·s]
303.15 K | 867.6 | 0.569
308.15 K | 863.2 | 0.534
313.15 K | 858.9 | 0.497

c1ccccc1 [benzene] + CCCOC=O
[2], x2 = 0
Settings | mass density [kg/m3] | viscosity [mPa·s]
303.15 K | 867.6 | 0.569
308.15 K | 863.2 | 0.534
313.15 K | 858.9 | 0.497

CCCCc1ccccc1 [butylbenzene]
[1]
Settings | mass density [kg/m3] | viscosity [mPa·s]
303.15 K | 851.3 | 0.901
308.15 K | 848 | 0.844
313.15 K | 844.6 | 0.787

CCCCc1ccccc1 [butylbenzene] + CCCOC=O
[2], x2 = 0
Settings | mass density [kg/m3] | viscosity [mPa·s]
303.15 K | 851.3 | 0.901
308.15 K | 848 | 0.844
313.15 K | 844.6 | 0.787

CC(C)c1ccccc1 [isopropylbenzene]
[1]
Settings | mass density [kg/m3] | viscosity [mPa·s]
303.15 K | 852.7 | 0.69
308.15 K | 849 | 0.651
313.15 K | 845.4 | 0.611

CC(C)c1ccccc1 [isopropylbenzene] + CCCOC=O
[2], x2 = 0
Settings | mass density [kg/m3] | viscosity [mPa·s]
303.15 K | 852.7 | 0.69
308.15 K | 849 | 0.651
313.15 K | 845.4 | 0.611

CCCOC=O [propyl methanoate]
[1]
Settings | mass density [kg/m3] | viscosity [mPa·s]
303.15 K | 893.5 | 0.477
308.15 K | 888.6 | 0.456
313.15 K | 883.8 | 0.431

CCCOC=O [propyl methanoate] + CC(C)Cc1ccccc1
[2], x1 = 1
Settings | mass density [kg/m3] | viscosity [mPa·s]
303.15 K | 893.5 | 0.477
308.15 K | 888.6 | 0.456
313.15 K | 883.8 | 0.431

CCCOC=O [propyl methanoate] + CC(C)c1ccccc1
[2]
Settings | mass density, 303.15 K [kg/m3] | mass density, 308.15 K [kg/m3] | mass density, 313.15 K [kg/m3] | viscosity, 303.15 K [mPa·s] | viscosity, 308.15 K [mPa·s] | viscosity, 313.15 K [mPa·s]
x1 = 0.1349 | 856 | 852.1 | 848.2 | 0.652 | 0.617 | 0.58
x1 = 0.2617 | 859.5 | 855.4 | 851.4 | 0.617 | 0.585 | 0.551
x1 = 0.3812 | 863.3 | 859.1 | 855 | 0.585 | 0.557 | 0.526
x1 = 0.487 | 867.1 | 862.7 | 858.5 | 0.559 | 0.533 | 0.504
x1 = 0.5882 | 871 | 866.5 | 862.2 | 0.537 | 0.513 | 0.485
x1 = 0.6817 | 875.1 | 870.4 | 866 | 0.517 | 0.495 | 0.468
x1 = 0.7675 | 879.2 | 874.4 | 869.8 | 0.506 | 0.485 | 0.459
x1 = 0.8499 | 883.5 | 878.6 | 873.9 | 0.494 | 0.474 | 0.448
x1 = 0.9277 | 888.1 | 883 | 878.2 | 0.484 | 0.464 | 0.439
x1 = 1 | 893.5 | 888.6 | 883.8 | 0.477 | 0.456 | 0.431

CCCOC=O [propyl methanoate] + CCCCc1ccccc1
[2]
Settings | mass density, 303.15 K [kg/m3] | mass density, 308.15 K [kg/m3] | mass density, 313.15 K [kg/m3] | viscosity, 303.15 K [mPa·s] | viscosity, 308.15 K [mPa·s] | viscosity, 313.15 K [mPa·s]
x1 = 0.1483 | 854.7 | 851 | 847.3 | 0.823 | 0.772 | 0.723
x1 = 0.2855 | 858.4 | 854.6 | 850.7 | 0.753 | 0.71 | 0.667
x1 = 0.4066 | 862.2 | 858.2 | 854.3 | 0.696 | 0.658 | 0.619
x1 = 0.5164 | 866.2 | 862.1 | 858 | 0.649 | 0.616 | 0.58
x1 = 0.6148 | 870.3 | 866 | 861.8 | 0.609 | 0.579 | 0.546
x1 = 0.7042 | 874.5 | 870.1 | 865.8 | 0.575 | 0.547 | 0.517
x1 = 0.7884 | 879.1 | 874.5 | 869.9 | 0.545 | 0.52 | 0.491
x1 = 0.8642 | 883.8 | 879 | 874.2 | 0.519 | 0.497 | 0.47
x1 = 0.9339 | 888.6 | 883.7 | 878.7 | 0.498 | 0.476 | 0.451
x1 = 1 | 893.5 | 888.6 | 883.8 | 0.477 | 0.456 | 0.431

CCCOC=O [propyl methanoate] + c1ccccc1
[2]
Settings | mass density, 303.15 K [kg/m3] | mass density, 308.15 K [kg/m3] | mass density, 313.15 K [kg/m3] | viscosity, 303.15 K [mPa·s] | viscosity, 308.15 K [mPa·s] | viscosity, 313.15 K [mPa·s]
x1 = 0.0918 | 869.6 | 865.1 | 860.6 | 0.54 | 0.512 | 0.479
x1 = 0.1874 | 871.4 | 866.8 | 862.3 | 0.518 | 0.49 | 0.462
x1 = 0.2822 | 873.6 | 868.9 | 864.3 | 0.504 | 0.476 | 0.448
x1 = 0.3785 | 875.8 | 871.1 | 866.5 | 0.49 | 0.466 | 0.437
x1 = 0.4767 | 878.2 | 873.4 | 868.7 | 0.48 | 0.456 | 0.431
x1 = 0.5772 | 880.6 | 875.8 | 871.1 | 0.474 | 0.449 | 0.425
x1 = 0.6802 | 883.4 | 878.5 | 873.7 | 0.471 | 0.451 | 0.426
x1 = 0.7854 | 886.2 | 881.3 | 876.5 | 0.469 | 0.448 | 0.423
x1 = 0.8924 | 889.4 | 884.4 | 879.5 | 0.467 | 0.446 | 0.421
x1 = 1 | 893.5 | 888.6 | 883.8 | 0.477 | 0.456 | 0.431
